{"source": "patent EP2687213B1", "about": "“Solid forms comprising (+)-2-[1-(3-ethoxy-4-methoxyphenyl)-2-methylsulfonylethyl]-4-acetylaminoisoindoline-1,3-dione, compositions thereof, and uses thereof” (CELGENE CORPORATION, priority 2008, dated 2009)", "key": {"[1]": {"tested_on": "patients with severe plaque-type psoriasis"}, "[2]": {"target": "PDE5 from human platelets (Homo sapiens, UniProt O76074)", "assay": "PDE5 enzyme assay", "assay_type": "biochemical", "conditions": "from PDE inhibition data of Table 1"}, "conscious ferret": {"tested_on": "conscious ferret", "assay": "Emesis and behavioral changes in conscious ferrets after oral dosing", "assay_type": "in vivo", "conditions": "for Ataxia / Backward walking / Flattened posture / Lip licking / Mouth clawing / Panting / Retches / Salivation / Vomits: oral, (animals that responded/group)", "procedure": "PDE4 inhibitors were administered orally (p.o.), at doses initially of […], but subsequently up to 30 mg/kg in order to establish whether the TI was 10 or higher, and/or at lower doses to establish the minimum dose to cause 50% inhibition of neutrophilia. Ferrets were fasted overnight but allowed free access to water. The animals were orally dosed with vehicle or PDE4 inhibitor using a 15 cm dosing needle that was passed down the back of the throat into the oesophagus. After dosing, the animals were returned to holding cages fitted with Perspex doors to allow observation, and given free access to water. After dosing, the animals were constantly observed and any emesis or behavioral changes were recorded. The animals were allowed access to food 60 to 90 minutes after p.o. dosing.\nThirty minutes after p.o. dosing with compound or vehicle control, the ferrets were placed into sealed Perspex containers and exposed to an aerosol of LPS (100 µg/ml) for 10 minutes. Aerosols of LPS were generated by a nebulizer (DeVilbiss, USA) and this was directed into the Perspex exposure chamber. Following a 10 minute exposure period, the animals were returned to the holding cages and allowed free access to water, and at a later stage, food. Observation continued for a period of at least 2.5 hours post p.o. dosing and emetic episodes and behavioral changes were recorded.\n(§1) • 1. % Inhibition of LPS-induced pulmonary neutrophilia. • 2. Emetic episodes - the number of vomits and retches were counted. • 3. Behavioral changes - the following behavioral effects were noted: salivation, panting, mouth clawing, flattened posture, ataxia, arched back and backward walking. Any behavioral changes were semi-quantified by applying a severity rating (mild, moderate or severe). • 4. The TI was calculated as the highest dose found to not cause emetic episodes divided by the lowest dose found to inhibit pulmonary neutrophilia by 50% or more.\nNumbers in parentheses refer to the number of animals that responded. The numbers of animals in each group range from 4 to 22."}, "human PDE2": {"target": "human PDE2 (Homo sapiens, UniProt O00408)", "sequence (O00408 whole entry)": "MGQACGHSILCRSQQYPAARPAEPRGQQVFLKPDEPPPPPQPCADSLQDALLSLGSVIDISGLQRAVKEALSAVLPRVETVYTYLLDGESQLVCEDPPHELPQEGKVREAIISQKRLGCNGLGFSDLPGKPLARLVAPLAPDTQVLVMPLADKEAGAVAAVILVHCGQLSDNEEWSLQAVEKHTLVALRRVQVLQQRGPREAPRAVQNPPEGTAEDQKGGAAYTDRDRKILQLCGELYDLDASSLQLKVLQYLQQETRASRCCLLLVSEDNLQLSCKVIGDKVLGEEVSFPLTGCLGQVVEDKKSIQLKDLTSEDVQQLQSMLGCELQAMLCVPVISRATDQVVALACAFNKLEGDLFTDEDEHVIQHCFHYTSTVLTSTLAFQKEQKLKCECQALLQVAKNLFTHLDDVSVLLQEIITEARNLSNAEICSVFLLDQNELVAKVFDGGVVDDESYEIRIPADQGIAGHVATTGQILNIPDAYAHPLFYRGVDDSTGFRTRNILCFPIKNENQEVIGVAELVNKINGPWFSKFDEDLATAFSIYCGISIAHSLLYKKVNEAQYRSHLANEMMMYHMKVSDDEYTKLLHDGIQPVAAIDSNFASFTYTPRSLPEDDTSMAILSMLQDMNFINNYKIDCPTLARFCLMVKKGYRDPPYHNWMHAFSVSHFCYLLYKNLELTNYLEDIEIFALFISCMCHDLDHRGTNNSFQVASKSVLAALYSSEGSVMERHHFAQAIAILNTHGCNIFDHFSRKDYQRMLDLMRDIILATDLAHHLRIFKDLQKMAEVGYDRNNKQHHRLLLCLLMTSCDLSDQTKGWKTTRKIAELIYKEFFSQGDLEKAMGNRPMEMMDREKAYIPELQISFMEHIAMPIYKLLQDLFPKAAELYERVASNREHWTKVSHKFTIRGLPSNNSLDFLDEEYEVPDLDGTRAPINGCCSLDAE", "assay": "PDE2 enzyme assay", "assay_type": "biochemical", "conditions": "from PDE inhibition data of Table 1"}, "[3]": {"tested_on": "LPS-induced pulmonary neutrophilia", "assay": "LPS-induced lung neutrophilia conscious ferret model", "assay_type": "in vivo", "conditions": "threshold emetic dose divided by ED50 for pulmonary neutrophilia", "from_the_text": "The conscious ferret model has been used to investigate anti-inflammatory, emetic and behavioral effects of PDE4 inhibitors when administered by the oral (p.o.) route. From these experiments, a therapeutic index (TI) for each PDE4 inhibitor may be determined. The TI has been calculated by dividing the threshold dose for causing emetic episodes and behavioral changes by the anti-inflammatory dose (dose that causes 50% inhibition of the LPS-induced neutrophilia). […]\nThirty minutes after p.o. dosing with compound or vehicle control, the ferrets were placed into sealed Perspex containers and exposed to an aerosol of LPS (100 µg/ml) for 10 minutes. […] Observation continued for a period of at least 2.5 hours post p.o. dosing and emetic episodes and behavioral changes were recorded. […]\nThe bronchoalveolar lavage (BAL) samples were centrifuged at 1,500 rpm for 5 minutes. […] From this, the total number of neutrophils in the BAL was determined.\nas §1, with “Behavioral changes - the following behavioral effects were noted: salivation, panting, mouth clawing, flattened posture, ataxia, arched back and backward walking.” left out"}, "[4]": {"target": "PDE3 from human platelets (Homo sapiens, UniProt Q14432)", "sequence (Q14432 whole entry)": "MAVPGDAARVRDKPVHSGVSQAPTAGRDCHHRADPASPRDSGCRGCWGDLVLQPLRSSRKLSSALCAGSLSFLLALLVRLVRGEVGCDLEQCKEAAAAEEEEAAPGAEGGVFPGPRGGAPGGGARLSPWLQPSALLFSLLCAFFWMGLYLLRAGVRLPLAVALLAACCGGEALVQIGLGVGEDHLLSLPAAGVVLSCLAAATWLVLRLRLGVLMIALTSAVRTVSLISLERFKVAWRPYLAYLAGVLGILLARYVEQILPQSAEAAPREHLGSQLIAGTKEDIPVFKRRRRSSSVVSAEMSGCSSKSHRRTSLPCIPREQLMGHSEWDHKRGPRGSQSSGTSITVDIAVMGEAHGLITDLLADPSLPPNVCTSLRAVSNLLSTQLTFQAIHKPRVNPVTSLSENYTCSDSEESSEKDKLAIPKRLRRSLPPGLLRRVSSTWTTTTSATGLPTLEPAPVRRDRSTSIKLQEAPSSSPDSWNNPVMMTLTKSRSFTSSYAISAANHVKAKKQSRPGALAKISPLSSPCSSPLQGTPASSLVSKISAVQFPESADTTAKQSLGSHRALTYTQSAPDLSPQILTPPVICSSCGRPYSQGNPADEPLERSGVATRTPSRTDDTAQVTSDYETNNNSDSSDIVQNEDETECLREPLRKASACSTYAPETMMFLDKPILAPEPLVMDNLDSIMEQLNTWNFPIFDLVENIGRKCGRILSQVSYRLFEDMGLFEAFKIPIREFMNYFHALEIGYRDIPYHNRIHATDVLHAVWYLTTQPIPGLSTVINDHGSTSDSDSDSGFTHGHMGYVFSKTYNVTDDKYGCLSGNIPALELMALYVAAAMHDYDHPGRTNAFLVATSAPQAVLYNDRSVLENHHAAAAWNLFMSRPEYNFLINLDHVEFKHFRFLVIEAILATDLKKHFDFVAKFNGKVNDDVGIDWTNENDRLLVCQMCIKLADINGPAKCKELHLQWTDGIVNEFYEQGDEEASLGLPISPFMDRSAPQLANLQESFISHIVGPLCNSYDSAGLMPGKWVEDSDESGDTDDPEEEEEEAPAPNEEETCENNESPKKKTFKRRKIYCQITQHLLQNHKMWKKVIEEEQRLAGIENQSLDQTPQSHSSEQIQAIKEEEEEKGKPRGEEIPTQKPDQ", "assay": "PDE3 enzyme assay", "assay_type": "biochemical", "conditions": "from PDE inhibition data of Table 1"}, "bovine PDE1": {"tested_on": "bovine PDE1", "assay": "PDE1 enzyme assay", "assay_type": "biochemical", "conditions": "from PDE inhibition data of Table 1"}, "[5]": {"conditions": "20 mg orally daily, number of patients"}, "[6]": {"conditions": "responders (≥ 20% epidermal thickness reduction), 8 patients, Day 29"}}, "data": [{"compound": "CCOc1cc(C(CS(C)(=O)=O)N2C(=O)c3cccc(NC(C)=O)c3C2=O)ccc1OC", "note": "(single isomer, unassigned; (+)) [Compound A, (+)-2-[1-(3-ethoxy-4-methoxyphenyl)-2-methylsulfonylethyl]-4-acetylaminoisoindoline-1,3-dione]", "values": [{"measurement": "patients with abnormal HLA-DR that had normal HLA-DR at Day 29", "setting": "[1]; [5]", "result": "Two"}, {"measurement": "patients with abnormal ICAM-1 at baseline that had normal ICAM-1 at Day 29", "setting": "[1]; [5]", "result": "Three"}, {"measurement": "patients with abnormal K16 at baseline that had normal K16 at Day 29", "setting": "[1]; [5]", "result": "one"}, {"measurement": "patients with abnormal fillagrin at baseline that had normal fillagrin at Day 29", "setting": "[1]; [5]", "result": "three"}, {"measurement": "safety (overall conclusion)", "setting": "[1]; 20 mg p.o. QD for 29 days", "result": "safe"}, {"measurement": "Percentage Reduction of Key Inflammatory Markers at Day 29: CD11c, Dermis", "setting": "[1]; Responder, signed change", "result": -18.50, "unit": "%"}, {"measurement": "Percentage Reduction of Key Inflammatory Markers at Day 29: CD11c, Epidermis", "setting": "[1]; Responder, signed change", "result": -40.16, "unit": "%"}, {"measurement": "Percentage Reduction of Key Inflammatory Markers at Day 29: CD83+, Dermis", "setting": "[1]; Responder, signed change", "result": -25.86, "unit": "%"}, {"measurement": "Percentage Reduction of Key Inflammatory Markers at Day 29: CD83+, Epidermis", "setting": "[1]; Responder, signed change", "result": -32.50, "unit": "%"}, {"measurement": "Percentage Reduction of Key Inflammatory Markers at Day 29: T-cells, Dermis", "setting": "[1]; Responder, signed change", "result": -28.79, "unit": "%"}, {"measurement": "Percentage Reduction of Key Inflammatory Markers at Day 29: T-cells, Epidermis", "setting": "[1]; Responder, signed change", "result": -42.56, "unit": "%"}, {"measurement": "decrease of dermal T-cells", "setting": "[1]; [6]", "result": 28.79, "unit": "%"}, {"measurement": "decrease of epidermal T-cells", "setting": "[1]; [6]", "result": 42.56, "unit": "%"}, {"measurement": "CD11c cells reduced in the dermis", "setting": "[1]; responders, Day 29", "result": 18.50, "unit": "%"}, {"measurement": "CD11c cells reduced in the epidermis", "setting": "[1]; responders, Day 29", "result": 40.16, "unit": "%"}, {"measurement": "Mean reduction from baseline in dermal CD83+ cells", "setting": "[1]; responders, Day 29", "result": 25.86, "unit": "%"}, {"measurement": "Mean reduction from baseline in epidermal CD83+ cells", "setting": "[1]; responders, Day 29", "result": 32.50, "unit": "%"}, {"measurement": "deaths", "setting": "[1]; treatment and follow-up phases", "result": "No deaths were reported"}, {"measurement": "PDE Specificity Ratio PDE4/PDE5", "setting": "[2]", "result": ">30000", "unit": "fold"}, {"measurement": "emetic episodes", "setting": "conscious ferret; 10 mg/kg p.o., in 2/6 ferrets", "result": "some retching but no frank emesis"}, {"measurement": "emesis", "setting": "conscious ferret; 30 mg/kg p.o. (highest dose tested), in 3/4 animals", "result": "moderate to marked emesis"}, {"measurement": "behavioral changes (flattened posture, lip licking and backward walking), severity", "setting": "conscious ferret; 0.1-3 mg/kg, p.o.", "result": "mild"}, {"measurement": "emetic episodes (retching and vomiting)", "setting": "conscious ferret; 0.1-3 mg/kg, p.o.", "result": "no emetic episodes"}, {"measurement": "Ataxia", "setting": "conscious ferret; 0.1 mg/kg", "result": "None"}, {"measurement": "Backward walking", "setting": "conscious ferret; 0.1 mg/kg", "result": "Mild (3/5)"}, {"measurement": "Flattened posture", "setting": "conscious ferret; 0.1 mg/kg", "result": "Mild (2/5)"}, {"measurement": "Lip licking", "setting": "conscious ferret; 0.1 mg/kg", "result": "Mild (4/5)"}, {"measurement": "Mouth clawing", "setting": "conscious ferret; 0.1 mg/kg", "result": "None"}, {"measurement": "Panting", "setting": "conscious ferret; 0.1 mg/kg", "result": "None"}, {"measurement": "Retches", "setting": "conscious ferret; 0.1 mg/kg", "result": "None"}, {"measurement": "Salivation", "setting": "conscious ferret; 0.1 mg/kg", "result": "None"}, {"measurement": "Vomits", "setting": "conscious ferret; 0.1 mg/kg", "result": "None"}, {"measurement": "Ataxia", "setting": "conscious ferret; 0.3 mg/kg", "result": "None"}, {"measurement": "Backward walking", "setting": "conscious ferret; 0.3 mg/kg", "result": "Mild (4/6)"}, {"measurement": "Flattened posture", "setting": "conscious ferret; 0.3 mg/kg", "result": "Mild (2/6)"}, {"measurement": "Lip licking", "setting": "conscious ferret; 0.3 mg/kg", "result": "Mild (3/6)"}, {"measurement": "Mouth clawing", "setting": "conscious ferret; 0.3 mg/kg", "result": "None"}, {"measurement": "Panting", "setting": "conscious ferret; 0.3 mg/kg", "result": "None"}, {"measurement": "Retches", "setting": "conscious ferret; 0.3 mg/kg", "result": "None"}, {"measurement": "Salivation", "setting": "conscious ferret; 0.3 mg/kg", "result": "None"}, {"measurement": "Vomits", "setting": "conscious ferret; 0.3 mg/kg", "result": "None"}, {"measurement": "Ataxia", "setting": "conscious ferret; 1.0 mg/kg", "result": "None"}, {"measurement": "Backward walking", "setting": "conscious ferret; 1.0 mg/kg", "result": "Mild (4/6)"}, {"measurement": "Flattened posture", "setting": "conscious ferret; 1.0 mg/kg", "result": "Mild (2/6)"}, {"measurement": "Lip licking", "setting": "conscious ferret; 1.0 mg/kg", "result": "Mild (6/6)"}, {"measurement": "Mouth clawing", "setting": "conscious ferret; 1.0 mg/kg", "result": "None"}, {"measurement": "Panting", "setting": "conscious ferret; 1.0 mg/kg", "result": "None"}, {"measurement": "Retches", "setting": "conscious ferret; 1.0 mg/kg", "result": "None"}, {"measurement": "Salivation", "setting": "conscious ferret; 1.0 mg/kg", "result": "None"}, {"measurement": "Vomits", "setting": "conscious ferret; 1.0 mg/kg", "result": "None"}, {"measurement": "Ataxia", "setting": "conscious ferret; 3.0 mg/kg", "result": "None"}, {"measurement": "Backward walking", "setting": "conscious ferret; 3.0 mg/kg", "result": "Moderate (5/8)"}, {"measurement": "Flattened posture", "setting": "conscious ferret; 3.0 mg/kg", "result": "Marked (7/8)"}, {"measurement": "Lip licking", "setting": "conscious ferret; 3.0 mg/kg", "result": "Mild (2/8)"}, {"measurement": "Mouth clawing", "setting": "conscious ferret; 3.0 mg/kg", "result": "Mild (1/8)"}, {"measurement": "Panting", "setting": "conscious ferret; 3.0 mg/kg", "result": "None"}, {"measurement": "Retches", "setting": "conscious ferret; 3.0 mg/kg", "result": "None"}, {"measurement": "Salivation", "setting": "conscious ferret; 3.0 mg/kg", "result": "None"}, {"measurement": "Vomits", "setting": "conscious ferret; 3.0 mg/kg", "result": "None"}, {"measurement": "Ataxia", "setting": "conscious ferret; 10 mg/kg", "result": "None"}, {"measurement": "Backward walking", "setting": "conscious ferret; 10 mg/kg", "result": "Marked (6/6)"}, {"measurement": "Flattened posture", "setting": "conscious ferret; 10 mg/kg", "result": "Marked (6/6)"}, {"measurement": "Lip licking", "setting": "conscious ferret; 10 mg/kg", "result": "Moderate (5/6)"}, {"measurement": "Mouth clawing", "setting": "conscious ferret; 10 mg/kg", "result": "Mild (1/6)"}, {"measurement": "Panting", "setting": "conscious ferret; 10 mg/kg", "result": "None"}, {"measurement": "Retches", "setting": "conscious ferret; 10 mg/kg", "result": "Mild (2/6)"}, {"measurement": "Salivation", "setting": "conscious ferret; 10 mg/kg", "result": "Mild (1/6)"}, {"measurement": "Vomits", "setting": "conscious ferret; 10 mg/kg", "result": "None"}, {"measurement": "Ataxia", "setting": "conscious ferret; 30 mg/kg", "result": "Mild (3/4)"}, {"measurement": "Backward walking", "setting": "conscious ferret; 30 mg/kg", "result": "Mild (2/4)"}, {"measurement": "Flattened posture", "setting": "conscious ferret; 30 mg/kg", "result": "Marked (4/4)"}, {"measurement": "Lip licking", "setting": "conscious ferret; 30 mg/kg", "result": "Moderate (4/4)"}, {"measurement": "Mouth clawing", "setting": "conscious ferret; 30 mg/kg", "result": "Marked (4/4)"}, {"measurement": "Panting", "setting": "conscious ferret; 30 mg/kg", "result": "Mild (1/4)"}, {"measurement": "Retches", "setting": "conscious ferret; 30 mg/kg", "result": "Marked (3/4)"}, {"measurement": "Salivation", "setting": "conscious ferret; 30 mg/kg", "result": "Moderate (3/4)"}, {"measurement": "Vomits", "setting": "conscious ferret; 30 mg/kg", "result": "Moderate (3/4)"}, {"measurement": "PDE Specificity Ratio PDE4/PDE2", "setting": "human PDE2", "result": ">10000", "unit": "fold"}, {"measurement": "Therapeutic index", "setting": "[3]", "result": 12}, {"measurement": "PDE Specificity Ratio PDE4/PDE3", "setting": "[4]", "result": ">1200", "unit": "fold"}, {"measurement": "PDE Specificity Ratio PDE4/PDE1", "setting": "bovine PDE1", "result": ">500", "unit": "fold"}]}]}
